Read-outs that look alike come from different tables or passages of the source. Bounds are passed on as bounds.

One data set has as its system EBOV minigenome. The data set is classed as cell-based, Ebola virus.
For data set [1], the system named is EBOV-eGFP. Kind of data set: microbe, parasite or virus in culture. The data set is classed as cell-based, Ebola virus. Conditions: Zaire ebolavirus, Vero C1008, 48 h, read-out: IC50 EBOV inhibition (virus titer).
For a further data set, the target named is PP1:cdNIPP1 (Homo sapiens, UniProt P62136). The data set can be described thus: cell-based.
PP1:cdNIPP1, sequence (P62136 whole entry, looked up): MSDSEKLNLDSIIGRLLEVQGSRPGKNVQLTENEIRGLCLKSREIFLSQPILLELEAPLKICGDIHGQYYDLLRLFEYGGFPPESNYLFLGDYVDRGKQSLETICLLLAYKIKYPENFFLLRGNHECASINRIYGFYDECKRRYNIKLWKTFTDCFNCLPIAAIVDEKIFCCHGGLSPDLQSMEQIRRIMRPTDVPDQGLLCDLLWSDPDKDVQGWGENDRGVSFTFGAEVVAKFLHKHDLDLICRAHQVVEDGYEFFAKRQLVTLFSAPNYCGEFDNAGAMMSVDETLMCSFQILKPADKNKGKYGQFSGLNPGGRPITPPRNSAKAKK
The target of the next data set is PP1:cdNIPP1 RATA (Homo sapiens, UniProt P62136). Kind of data set: cell-based.
PP1:cdNIPP1 RATA, sequence (P62136 whole entry, looked up): as above
Another data set addresses PP1:cdNIPP1 helix MUT (Homo sapiens, UniProt P62136). Kind of data set: cell-based.
In another data set the target is PP1 MUT:cdNIPP1 (Homo sapiens, UniProt P62136, A299E/G274E/L73Y/Y70W). Kind of data set: cell-based.
PP1 MUT:cdNIPP1, sequence (P62136 whole entry Y70W/L73Y/G274E/A299E, looked up): as the sequence (P62136 whole entry, looked up) above, with Y70W, L73Y, G274E, A299E counted along it
For another data set, the target named is PP1 MUT:cdNIPP1 RATA (Homo sapiens, UniProt P62136, A299E/G274E/L73Y/Y70W). Kind of data set: cell-based.
PP1 MUT:cdNIPP1 RATA, sequence (P62136 whole entry Y70W/L73Y/G274E/A299E, looked up): as the sequence (P62136 whole entry, looked up) above, with Y70W, L73Y, G274E, A299E counted along it
For data set [2] the following is noted: 1 h, pH 7.4.
The conditions of data set [3]: 1 h, pH 7.4. The source holds these as a separate data set.
The nature of data set [4]: in vitro. Conditions: human.
The test system of data set [5] is EBOV-eGFP. Kind of data set: microbe, parasite or virus in culture. Type of data set: cell-based, Ebola virus.
The target in data set [6] is T1, PP1 (Homo sapiens, UniProt P62136). The data set is classed as binding.
T1 sequence (P62136 7-300 limits assumed): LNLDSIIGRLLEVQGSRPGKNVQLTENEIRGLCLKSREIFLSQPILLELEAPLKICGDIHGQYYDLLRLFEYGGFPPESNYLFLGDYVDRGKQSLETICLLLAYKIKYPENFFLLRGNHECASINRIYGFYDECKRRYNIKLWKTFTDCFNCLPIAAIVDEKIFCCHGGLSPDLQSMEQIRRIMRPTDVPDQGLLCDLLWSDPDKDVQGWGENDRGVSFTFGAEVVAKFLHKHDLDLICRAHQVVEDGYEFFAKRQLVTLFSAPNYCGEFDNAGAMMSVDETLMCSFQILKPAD
In the next data set the target is PP1α (Oryctolagus cuniculus, UniProt P62139). Type of data set: biochemical.
PP1α, sequence (P62139 whole entry, looked up): as the sequence (P62136 whole entry, looked up) above
The target of another data set is WT PP1 (Homo sapiens, UniProt P62136). Kind of data set: biochemical. The data set is classed as binding.
WT PP1, sequence (P62136 7-300 limits assumed): as the sequence (P62136 7-300 limits assumed) above
Data set [7] addresses T1, PP1. Type of data set: binding. The source holds these as a separate data set.
The target in data set [8] is PP1 (Homo sapiens, UniProt P36873). The data set is classed as cell-based.
PP1 (Homo sapiens, UniProt P36873), sequence (P36873 whole entry, looked up): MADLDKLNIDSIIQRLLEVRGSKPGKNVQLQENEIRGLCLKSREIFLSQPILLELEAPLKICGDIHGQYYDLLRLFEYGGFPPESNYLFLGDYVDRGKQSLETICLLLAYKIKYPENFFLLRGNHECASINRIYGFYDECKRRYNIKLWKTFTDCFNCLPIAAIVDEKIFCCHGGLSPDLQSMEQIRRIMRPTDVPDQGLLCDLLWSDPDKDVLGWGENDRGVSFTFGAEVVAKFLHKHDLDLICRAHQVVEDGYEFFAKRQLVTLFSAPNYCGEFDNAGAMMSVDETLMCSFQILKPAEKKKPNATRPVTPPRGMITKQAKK
For data set [9] the following is noted: 24 h.
Data set [10] in a line: in vitro. Conditions: mouse, serum.
For a further data set, the system named is EBOV. Conditions: cited from earlier work.
The next data set concerns EBOV VP30. The data set is classed as cell-based, Ebola virus.

PP1:cdNIPP1 helix MUT, sequence (P62136 whole entry, looked up): as the sequence (P62136 whole entry, looked up) above

Usually IC50 stands for the concentration at which inhibition is half-maximal. As for `CCNC(=O)NC(=O)C(C)OC(=O)c1c2c(nc3ccccc13)/C(=C\c1ccc(OC)c(OC)c1)CC2` (centres unmarked) [1E7-03], the “inhibition of EBOV gene expression (Renilla luciferase)” value in the data set with EBOV minigenome (10 μM) is on record as “strongly inhibit”. The IC50 in the data set on EBOV-eGFP [1] is 7.2 µM; at PP1:cdNIPP1 it was 1.5 µM; against PP1:cdNIPP1 RATA it was more than 20 µM; at PP1:cdNIPP1 helix MUT it was 2.4 µM; against PP1 MUT:cdNIPP1, 2.7 µM; against PP1 MUT:cdNIPP1 RATA it was more than 20 µM. Besides, the “effect on cellular viability” value in the data set on HEK293T cells was “no effect on cellular viability”. Moreover, the “remaining in human serum” value (10 μM, 37°C, after 24 h) is reported as 78%. The “remained intact in mouse liver microsomes” value in data set [2] is reported as “over 90%”. In addition, in [3], the “remaining in human liver microsomes” value was 60%. This compound also displayed a CC50 in “in vitro [4]” of more than 300 µM.
Broadly, the Kd is the free concentration of one partner at which half of the binding sites on the other are occupied at equilibrium, for simple one-to-one binding. A low value points to tighter binding. By half-life is commonly meant how long it takes for the measured level to halve. Lower therefore signals rapid decline. On to `COc1ccc(C=C2CCc3c2nc2ccccc2c3C(=O)OC(C)C(=O)NC2CC2)cc1OC` (centres unmarked) [1E7-07], for which the “EBOV inhibitory activity (comparison among analogs)” value in the data set on EBOV-eGFP [5] was “best EBOV inhibitory activity”. In the data set with EBOV-eGFP [5] (Zaire ebolavirus, Vero C1008, 72 h, read-out: EBOV inhibitory activity), the inhibition at 10 µM was approximately 70%. The “inhibition of EBOV gene expression (Renilla luciferase)” value in the data set with EBOV minigenome was “strongly inhibit”. The half-maximal inhibitory concentration (IC50) in the data set on EBOV-eGFP [1] is 8.6 µM; on PP1:cdNIPP1, 3.7 µM; on PP1:cdNIPP1 RATA, more than 20 µM; on PP1:cdNIPP1 helix MUT, 4.3 µM; against PP1 MUT:cdNIPP1 it was 4.5 µM; on PP1 MUT:cdNIPP1 RATA, more than 20 µM. Further, the “protection of peptide 75[…]96 from ELNLLB painting” value on PP1 [6] is on record as “over 90%”. Also, the “recovered peptide signals compared to the control (protection from ELNLLB painting)” value at PP1 [6] is “over 70%”. The “effect on PP1 enzymatic activity” value at PP1α is “no effect”. The same compound yielded a Kd on WT PP1 of 0.661 µM. The Rmax at WT PP1 is recorded as 9.763 RU. At WT PP1, this compound had a kd of 0.0009566 s⁻¹. In addition, the kon at WT PP1 (pH 7.4, read-out: ka) turned out to be 1450 M⁻¹ s⁻¹. Also, on PP1 [7], the “competition with pRb-Tat peptide binding to PP1” value is “competed dose-dependently”. On PP1 [8], the “effect on PP1 cellular localization” value was “does not affect”. Also, the “toxicity (Viral ToxGlo)” value in the data set on Vero-E6 cells is recorded as “no toxicity”. In addition, the “effect on cellular viability” value with HEK293T cells is on record as “no effect on cellular viability”. Further, in [9], the “remained in mouse serum” value is listed as 25%. Moreover, the “remaining in human serum” value (human, serum, 24 h) is recorded as “no degradation”. Besides, the “remained intact in mouse liver microsomes” value in [2] was “over 90%”. In data set [3], the “remaining in human liver microsomes” value was determined as 90%. Further, the CC50 in “in vitro [4]” is more than 300 µM. This compound gave a half-life in “in vitro [10]” of 6 h.
For the compound `CCNC(=O)NC(=O)C(C)OC(=O)c1c2c(nc3ccccc13)/C(=C\c1cccc([N+](=O)[O-])c1)CCC2` (centres unmarked) [1E7], in the data set on EBOV, the EBOV inhibition entry is listed as “inhibited EBOV”.
As for `C=C1[C@@H](O)[C@@H]2O[C@]3(CC[C@H](/C=C/[C@@H](C)[C@@H]4CC(C)=C[C@@]5(O[C@H](C[C@@](C)(O)C(=O)O)CC[C@H]5O)O4)O3)CC[C@H]2O[C@@H]1[C@@H](O)C[C@H](C)[C@H]1O[C@@]2(CCCCO2)CC[C@H]1C` [okadaic acid], the “increase of VP30 phosphopeptides (Thr-119 and Ser-124) vs DMSO control” value in the data set on EBOV VP30 stood at 3.3 fold.
Consider `CC[C@H](C)[C@H](NC(=O)[C@H](Cc1ccccc1)NC(=O)[C@H](CS)NC(=O)[C@@H](NC(=O)[C@H](CCC(N)=O)NC(=O)[C@H](CS)NC(=O)[C@H](Cc1c[nH]cn1)NC(=O)[C@H](Cc1ccccc1)NC(=O)[C@H](CS)NC(=O)[C@H](CS)NC(=O)[C@H](CCCCN)NC(=O)[C@H](CCCCN)NC(=O)[C@H](CCCNC(=N)N)NC(=O)[C@H](CC(C)C)NC(=O)[C@@H]1CCCN1C(=O)[C@H](CO)NC(=O)[C@H](CO)NC(=O)[C@@H]1CCCN1C(=O)[C@H](Cc1ccccc1)NC(=O)[C@H](CCCCN)NC(=O)[C@H](Cc1ccc(O)cc1)NC(=O)[C@@H]1CCCN1C(=O)[C@H](COP(=O)(O)O)NC(=O)[C@H](CCCNC(=N)N)NC(=O)[C@@H]1CCCN1C(=O)[C@@H](NC(=O)[C@@H](N)Cc1c[nH]cn1)[C@@H](C)CC)C(C)C)C(=O)N[C@H](C(=O)N[C@@H](CCCCN)C(=O)O)[C@@H](C)O` [pRb-Tat, reference compound], for which the Rmax on WT PP1 was 212.4 RU.

(Values after article PMC6753193 (Frontiers in Microbiology, 2019).)
